Laboratory results as given in patent publication US20240287130A1, “COMPOUND FOR ALCOHOLIC LIVER INJURY, PREPARATION METHOD, COMPOSITION, FOOD AND USE” (CHENGDU INNOHEPOREM BIOTECH CO., LTD., priority 2021, published 2024).

Columns and labels:
[1] = system: mouse alcoholic liver injury model; test: Effect of product (a) on alcoholic liver injury (Example 6): six months alcohol feeding, then one month of intervention in normal liquid feed; type: in vivo, C57 mice; conditions: one month intervention after six months alcohol; for proportion of fat deposition in the total liver area (oil red O staining): non-intervention group 0.68, FIG. 16; for ALT level in serum: normal diet group 12.03, non-intervention group 44.84, FIG. 14
From the text: (§1) This experiment used the Lieber-DeCarli alcoholic fatty liver modeling method. Lieber-DeCarli feed was purchased from Nantong Trophic Animal Feed High-Tech Co., Ltd. The specific method is as follows: C57 mice (purchased from TROPHIC Animal Feed High-Tech Co. Ltd, China, the same below) were fed with normal solid maintenance feed, adapted to the feeding environment for at least one week, then were fed with maltodextrin diet for a week of transition, and then fed with Lieber-DeCarli feed. The alcohol concentration of Lieber-DeCarli feed was 3% in the first week, and the alcohol concentration was increased by 0.5% every week until reaching an alcohol concentration of 5%. The animals were continued to be fed with feed containing 5% alcohol. C57 mice were fed with Lieber-DeCarli feed for 12 weeks to establish a model of alcoholic liver injury.
30 C57 mice were subjected to adaptive feeding for 1 week, and then randomly divided into a normal diet group (n=6) and an alcohol diet group (n=24) according to body weight. In the alcohol diet group, a mouse alcoholic liver injury model was established by feeding mice with Lieber-DeCarli feed for 24 weeks according to the method of Example 3. After the modeling was completed, the mice were randomly divided into 4 groups, namely the non-intervention group (EtOH(6m)+Normal(1m), n=6), the zinc glutathione intervention group (EtOH(6m)+Zn(GSH)2(1m), n=6), the zinc intervention group (EtOH(6m)+Zn(1m), n=6), and the glutathione intervention group (EtOH(6m)+GSH(1m), n=6). The remaining normal diet group was named the normal group (Normal (7m) group, n=5).
Different intervention substances were added to the normal liquid feed for 1 month. The feed of the zinc glutathione intervention group was added with Zn(GSH)2SO4 at an amount of 1 mg Zn per 10 mL of feed (GSH was 9.35 mg/10 mL) for one month of intervention. The feed of the zinc intervention group was added with ZnSO4 at an amount of 1 mg Zn per 10 mL of feed. The feed of the glutathione intervention group was added with glutathione at an amount of 9.35 mg GSH per 10 mL of feed.
(§2) At the end of the experiment in each group, the animals were weighed, blood was collected, and materials were collected.
(§3) Blood collection: orbital blood collection was performed.
(§4) Liver: The animals were killed by cervical dislocation. The mice were cut along the midline of the abdomen to expose the abdomen and the liver was then peeled off. The intact liver was peeled off and separated into the different lobes.
(§5) Tissue distribution of each lobe of the liver: The left lobe was separated into three sections and the right lobe was separated into two sections. The first sections of the left lobe and right lobe were used to make pathological sections for histological examination. The second sections of the left lobe and right lobe were used for zinc measurement. The remaining third section of the left lobe was stored in liquid nitrogen for analysis such as molecular detection.
Biochemical analysis of serum: Alanine aminotransferase (ALT) in blood samples was analyzed using a colorimetric method.
Oil red O staining of frozen sections: Frozen sections were stained with ORO stain solution and the nuclei were counterstained with hematoxylin. […] The area of the ORO positive area was measured using Image Pro-Plus 6.0 software, and the ratio of the positive area to the total area was calculated.
(§6) Data processing and statistical analysis: All experimental data herein were analyzed using GraphPad Prime 6 statistical analysis software. Student t test was used for single factor analysis between two groups, and p<0.05 was considered to be statistically different.
Determination method: After blood was collected, the collected whole blood was placed at 25° C. for 30 minutes. After the blood coagulated, it was centrifuged at 3500 rpm for 15 minutes to separate the serum, and various parameters were measured timely. […]

[2] = system: mouse alcoholic liver injury model; test: Effect of product (a) on alcoholic liver injury (Example 4): Lieber-DeCarli alcohol diet, three months of intervention; type: in vivo, C57 mice
From the text: as §1
30 C57 mice were subjected to adaptive feeding for 1 week, and then randomly divided into a normal diet group (n=9) and an alcohol diet group (n=21) according to body weight. In the alcohol diet group, a mouse alcoholic liver injury model was established by feeding mice with Lieber-DeCarli feed for 12 weeks according to the method of Example 3. After the modeling was completed, the mice were randomly divided into 3 groups, one of which was the pre-intervention group (EtOH (3m), n=3) (meanwhile, 4 animals were randomly selected from the normal diet group to be control of the pre-intervention group (Normal (3m) group, n=4). The pre-intervention group and the pre-intervention control group were collected immediately after the modeling was completed. The other two groups were the non-intervention group (EtOH (6m), n=10), and the zinc/glutathione intervention group (EtOH(6m)/Zn(GSH)2(3m), n=8) respectively. The remaining normal diet group was named the normal group (Normal (6m) group, n=5).
Zn(GSH)2·SO4 was added to the daily Lieber-DeCarli alcohol diet at the amount of 1 mg Zn/10 mL of feed for three months of invention.
as §2, §3
as §4, with “lobes. The left lobe was separated into three sections using a blade, and the right lobe was separated into two sections.” for “lobes.”
as §5, with “Other lobes were” for “The remaining third section of the left lobe was”, “detection. […]” for “detection.”
Measurement of zinc concentration: The zinc concentration in liver tissue was determined using atomic absorption spectrometry (atomic absorption spectrometer: ICE3500, Thermo Company).
as §6

[3] = EtOH(6 m)/Zn(GSH)2 group, end of experiment

| Compound | ALT level relative to the zinc glutathione intervention group [1] | proportion of fat deposition in the total liver area (oil red O staining) [1] | ALT level in serum [1] | fat deposition (oil red O staining of liver) ([2]; EtOH(6m)/Zn(GSH)2(3m) vs non-intervention group, FIG. 9) | Liver weight [2, 3] [g] | Liver weight/final body weight [2, 3] [%] | Final body weight ([2]; EtOH(6 m)/Zn(GSH)2 group, end of experiment, average) [g] | survival rate ([2]; alcohol-fed mice, intervention after modeling, 1 mg Zn/10 mL feed, FIG. 8) | zinc content in the liver ([2]; atomic absorption spectrometry, intervention group, FIG. 12) | area of fat deposition (percentage of fat deposition in the total liver area) ([2]; oil red O staining, vs non-intervention group, FIG. 10) | vesicular steatosis (HE staining) ([2]; vs non-intervention group, FIG. 11) |
| --- | --- | --- | --- | --- | --- | --- | --- | --- | --- | --- | --- |
| N[C@@H](CCC(=O)N[C@@H](CS)C(=O)NCC(=O)O)C(=O)O [glutathione, N-(N-L-γ-glutamyl-L-cysteinyl)-glycine] | about 2 times | 0.62 | 22.86 |  |  |  |  |  |  |  |  |
| O=S(=O)([O-])[O-].[Zn+2] [zinc, ZnSO4] | about 2 times | 0.36 | 22.03 |  |  |  |  |  |  |  |  |
| [Zn^2+(L-GSH)2]·SO4^2− [Zn(GSH)2·SO4] |  | 0.21 | 8.96 | significantly improved | 1.26 ± 0.25 | 5.62 ± 0.80 | 22.53 ± 1.67 | significantly increased | significantly increased | significantly reduced | significantly reduced |
